According to ChEMBL document CHEMBL5303304, “EUbOPEN Chemogenomics Library - IncuCyte” (2023):

Key:
Assay type in all cases: toxicity, cell-based
HEK-293T = test: Incucyte cell viability with HEK293T; conditions: human, 10 µM, compound concentration 10 uM
U2OS = test: Incucyte cell viability with U2OS; conditions: human, 10 µM, compound concentration 10 uM
Fibroblast = test: Incucyte cell viability with human fibroblast; conditions: 10 µM, compound concentration 10 uM
Further: unitless GR value; below 1 slowed growth and below 0 cell loss.

Row | SMILES | Growth Rate (HEK-293T; 6 h, replicate number 1) | Growth Rate (HEK-293T; 6 h, replicate number 2) | Growth Rate (HEK-293T; 12 h, replicate number 1) | Growth Rate (HEK-293T; 18 h, replicate number 1) | Growth Rate (HEK-293T; 18 h, replicate number 2) | Growth Rate (HEK-293T; 24 h, replicate number 1) | Growth Rate (HEK-293T; 24 h, replicate number 2) | Growth Rate (U2OS; 0 h, replicate number 1) | Growth Rate (U2OS; 6 h, replicate number 1) | Growth Rate (U2OS; 6 h, replicate number 2) | Growth Rate (U2OS; 12 h, replicate number 1) | Growth Rate (U2OS; 12 h, replicate number 2) | Growth Rate (U2OS; 18 h, replicate number 1) | Growth Rate (U2OS; 18 h, replicate number 2) | Growth Rate (U2OS; 24 h, replicate number 1) | Growth Rate (Fibroblast; 6 h, replicate number 1) | Growth Rate (Fibroblast; 6 h, replicate number 2) | Growth Rate (Fibroblast; 12 h, replicate number 2) | Growth Rate (Fibroblast; 18 h, replicate number 2) | Growth Rate (Fibroblast; 24 h, replicate number 2) | other results
1 | Cl.O=C(NCCN1CCC2(CC1)C(=O)NCN2c1cccc(F)c1)c1ccc2ccccc2c1 | -0.37 | -0.93 | 0.06 | 0.22 | -0.32 | 0.34 | -0.14 | -0.95 | 0.46 | 0.73 | 0.24 | 0.25 | -0.13 | 0.23 | -0.24 | -0.03 | -0.05 | -0.26 | -0.07 | -0.14 | Growth Rate (HEK-293T; 12 h, replicate number 2): -0.68; Growth Rate (U2OS; 0 h, replicate number 2): -0.98; Growth Rate (U2OS; 24 h, replicate number 2): 0.17; Growth Rate (Fibroblast; 0 h, replicate number 1): -1; Growth Rate (Fibroblast; 12 h, replicate number 1): -0.27; Growth Rate (Fibroblast; 18 h, replicate number 1): -0.19; Growth Rate (Fibroblast; 24 h, replicate number 1): -0.27
2 | CC(=O)N(CCN(C)C)c1ccc(N/C(=C2\C(=O)Nc3cc(Cl)ccc32)c2ccccc2)cn1 | -0.78 | -0.92 | -0.58 | -0.45 | -0.55 | -0.37 | -0.42 |  | -0.35 | 0.34 | 0.03 | 0.23 | 0.02 | 0.1 | -0.14 | -0.62 | -0.8 | -0.8 | -0.76 | -0.72 | Growth Rate (HEK-293T; 12 h, replicate number 2): -0.71; Growth Rate (U2OS; 24 h, replicate number 2): -0.13; Growth Rate (Fibroblast; 0 h, replicate number 2): -1; Growth Rate (Fibroblast; 12 h, replicate number 1): -0.65; Growth Rate (Fibroblast; 18 h, replicate number 1): -0.63; Growth Rate (Fibroblast; 24 h, replicate number 1): -0.58
3 | COCCN1CCN(CCn2ccc(Nc3ncc4c(n3)-c3c(nn(C)c3-c3ccccc3)C[C@H]4C)n2)CC1 | -0.53 | -0.51 | -0.36 | -0.28 | -0.32 | -0.17 | -0.22 |  | 0.91 | 0.25 | -0.73 | -0.9 | 0.7 | -0.83 | 0.85 | 0.35 | 0.5 | 0.24 | 0.31 | 0.41 | Growth Rate (HEK-293T; 12 h, replicate number 2): -0.33; Growth Rate (U2OS; 24 h, replicate number 2): 0.5; Growth Rate (Fibroblast; 0 h, replicate number 2): 0.9; Growth Rate (Fibroblast; 12 h, replicate number 1): 0.47; Growth Rate (Fibroblast; 18 h, replicate number 1): 0.37; Growth Rate (Fibroblast; 24 h, replicate number 1): 0.52
4 | C[C@@H](CN1CC[C@@]2(C)c3cccc(O)c3C[C@@H]1C2(C)C)OCc1ccccc1.Cl | 0.31 |  | 0.74 | 0.77 | 0.95 | 0.8 | 0.96 | -0.32 | 0.53 | 0.85 | 0.61 | 0.78 | 0.81 | 0.98 | 0.79 | 0.03 | -0.28 | 0.93 | 1 | 0.98 | Growth Rate (HEK-293T; 0 h, replicate number 1): 0.44; Growth Rate (HEK-293T; 0 h, replicate number 2): -0.22; Growth Rate (Fibroblast; 0 h, replicate number 1): -1
5 | N#CC[C@H](C1CCCC1)n1cc(-c2ncnc3[nH]ccc23)cn1 [RUXOLITINIB] | 0.27 |  | 0.86 |  |  |  |  | -1 |  |  |  |  |  |  |  |  |  |  |  |  | Growth Rate (HEK-293T; 0 h, replicate number 1): -0.91; Growth Rate (HEK-293T; 0 h, replicate number 2): -0.15; Growth Rate (Fibroblast; 0 h, replicate number 1): -1
6 | Cc1c[nH]c(-c2cnc(NCCNc3ccc(C#N)cn3)nc2-c2ccc(Cl)cc2Cl)n1 [LADUVIGLUSIB] | 0.35 | 0.14 | 0.49 | 0.58 | 0.7 | 0.71 | 0.75 | 0.54 | 0.47 |  | 0.48 | 0.87 | 0.83 | 0.93 | 0.56 | 0.56 | 0.81 | -0.19 | -0.3 | -0.28 | Growth Rate (HEK-293T; 0 h, replicate number 1): 0.82; Growth Rate (HEK-293T; 0 h, replicate number 2): 0.92; Growth Rate (HEK-293T; 12 h, replicate number 2): 0.43; Growth Rate (U2OS; 24 h, replicate number 2): 0.99; Growth Rate (Fibroblast; 12 h, replicate number 1): -0.47; Growth Rate (Fibroblast; 18 h, replicate number 1): -0.4; Growth Rate (Fibroblast; 24 h, replicate number 1): -0.33
7 | CC(C)(c1ccc(OCc2cccc(COc3ccc(C(=N)N)cc3)c2)cc1)c1ccc(O[C@@H]2O[C@H](C(=O)O)[C@@H](O)[C@H](O)[C@H]2O)cc1.O=C(O)C(F)(F)F |  |  |  | 0.87 |  | 1 |  | 0.36 | 0.61 | 0.56 | 0.97 | 0.68 | -0.41 | 0.89 |  | 0.34 |  |  |  | 0.92 | Growth Rate (HEK-293T; 0 h, replicate number 1): 0.51; Growth Rate (HEK-293T; 0 h, replicate number 2): -0.08; Growth Rate (U2OS; 0 h, replicate number 2): -0.17; Growth Rate (Fibroblast; 0 h, replicate number 1): -1; Growth Rate (Fibroblast; 24 h, replicate number 1): 0.88
8 | Cc1ccc(-n2nc(C(C)(C)C)cc2NC(=O)Nc2ccc(OCCN3CCOCC3)c3ccccc23)cc1 [DORAMAPIMOD] | 0.67 |  | 0.67 | 0.87 |  | 0.95 |  | -1 |  |  |  | 0.9 |  | 0.87 |  |  |  |  |  |  | Growth Rate (HEK-293T; 0 h, replicate number 1): -0.47; Growth Rate (U2OS; 24 h, replicate number 2): 0.76; Growth Rate (Fibroblast; 0 h, replicate number 2): 0.08
9 | O=C(O)c1ccc(OCCCc2ccc(OCCCCOC3CCCCC3)cc2)c(C(=O)NC2CCCC(C(=O)O)C2)c1 (stereo unspecified) | 0.96 |  | 0.94 |  | 0.94 |  | 0.92 |  |  |  |  |  |  |  | 0.89 |  | -0.02 | 0.19 | 0.41 | 0.73 | Growth Rate (HEK-293T; 0 h, replicate number 1): -0.01
10 | CCC(=O)O[C@]1(C(=O)CCl)[C@@H](C)C[C@H]2[C@@H]3CCC4=CC(=O)C=C[C@]4(C)[C@@]3(F)[C@@H](O)C[C@@]21C [CLOBETASOL PROPIONATE] | 0.7 | 1 |  |  |  |  |  |  | -0.15 | 0.94 | 0.77 | 0.76 | 0.92 | 0.88 | 0.83 | 0.53 |  |  |  |  | Growth Rate (U2OS; 0 h, replicate number 2): -0.24; Growth Rate (Fibroblast; 12 h, replicate number 1): -1
11 | CNC(=O)c1c[nH]c2ccc(Nc3nccc(-c4ccccn4)n3)cc12 | 0.28 | 0.09 | 0.33 | 0.33 | 0.14 | 0.39 | 0.17 | 0.13 |  |  |  |  | 0.95 |  |  |  | 0.18 | 0.41 | 0.6 | 0.75 | Growth Rate (HEK-293T; 12 h, replicate number 2): 0.1; Growth Rate (U2OS; 24 h, replicate number 2): 0.94; Growth Rate (Fibroblast; 0 h, replicate number 1): -1; Growth Rate (Fibroblast; 12 h, replicate number 1): 0.8
